Reference: PMC5855685 (International Journal of Molecular Sciences, 2018)
≈ marks a conversion by molar mass, not a printed value. Read-outs that look alike come from different tables or passages of the source.

What was measured:
[1] = DPPH radical scavenging assay; details: methanolic solution, 40 μM DPPH, 1 h, 23 °C, 516 nm
Experimental: Particular volumes of chlorogenic acid and chlorogenate solutions were added into the test tubes and diluted with methanol to obtain a series of solutions at the concentrations 10–0.1 μM (final volume 1 mL). Then, 2 mL of DPPH was added to each tube, vortexed and incubated in the darkness for 1 h at 23 °C. […] The absorbance of the mixture was measured at 516 nm against methanol as the blank using Agilent Carry 5000 spectrophotometer. The control sample—2 mL of DPPH solution and 1 mL of methanol. […] Then, the concentration of the tested substances was plotted against the % inhibition and the IC50 values were read from the scavenging curves. […] The IC50 parameter was also obtained for butylated hydroxyanisol (BHA), butylated hydroxytoluene (BHT) and L-ascorbic acid and compared with those ones calculated for studied compounds.

Candida sp. = test: Antifungal activity, MIC on Müeller Hinton Agar; format: cell-based; details: for MIC: Candida, read-out: MIC (minimal inhibitory concentration)
Experimental: (§1) The antimicrobial activity of studied compounds was tested against Escherichia coli, Bacillus subtilis, Staphylococcus epidermidis, Streptococcus pyogenes and antifungal activities against Candida sp. The microorganisms used in the experiment were obtained from the American Type Culture Collection-ATCC. Antimicrobial activity was measured as a minimal inhibitory concentration (MIC) with […] Hinton Agar (MHA). Serial two-fold dilutions of chemicals, ranging from 5000, 2500, 1250, 625 to 312, μg/mL were prepared. After the inoculation of microorganisms on MHA plates with certain tested chemical concentrations, the plates were incubated at 37 °C for bacteria and at 30 °C for Candida sp. for 24 and 48 h, respectively. Plates containing sterile water were used as controls. Minimum three repetitions were run for each assay. Ampicillin and kanamycin were used as a reference antibiotics.

[2] = test system: Staphylococcus Epidermidis (Gram+); test: Antimicrobial activity, MIC on Müeller Hinton Agar; format: cell-based; details: for MIC: read-out: MIC (minimal inhibitory concentration)
Experimental: as §1

[3] = test system: Streptococcus Pyogenes (Gram+); test: Antimicrobial activity, MIC on Müeller Hinton Agar; format: cell-based; details: for MIC: read-out: MIC (minimal inhibitory concentration)
Experimental: as §1

[4] = FRAP (ferric reducing antioxidant power) assay; details: Fe2+ equivalents
Experimental: Ferric reducing antioxidant activity was determined in FRAP assay. In order to prepare the FRAP reagent the following reagents: 0.3 M acetate buffer (pH 3.6), 10 mM TPTZ (in 40 mM HCl) and 20 mM FeCl3·6H2O (in water) were mixed in a volumetric ratio 10:1:1 directly before analyses. Then, the FRAP reagent (3 mL) was mixed with the tested substance (0.4 mL; final concentrations C = 2.5 and 5.0 μM). The absorbance was measured at 594 nm against blank (3 mL of FRAP and 0.4 mL of methanol) using an Agilent Carry 5000 spectrophotometer (CA, USA). Antioxidant activity was expressed as Fe^2+ equivalents [μM] using the calibration curve prepared over the range of 1000–20 μM concentration of FeSO4.

E. coli (Gram−) = test: Antimicrobial activity, MIC on Müeller Hinton Agar; format: cell-based, Escherichia coli; details: for MIC: Escherichia coli, read-out: MIC (minimal inhibitory concentration)
Experimental: as §1

[5] = Pro-oxidant activity as rate of oxidation of trolox (H2O2 / horseradish peroxide); details: 100 μM trolox, 50 μM H2O2, pH 7, 25 °C, 272 nm
Experimental: Chlorogenic acid and chlorogenates were also tested for their pro-oxidative effect on trolox oxidation. The radicals of chlorogenic acid and chlorogenates are produced in their reaction with H2O2 catalysed by horse radish peroxide. Then the phenoxyl radicals react with trolox which undergoes oxidation to trolox radicals and then trolox quinones. Whereas the phenoxyl radical are transformed to phenolic compounds. The maximum absorption for trolox quinone is 272 nm. This is a general procedure to study the pro-oxidant activity of phenolic compounds [54].
The pro-oxidant activity of the tested compounds were measured as the rate of oxidation of trolox according to the procedure described by Zeraik et al.. 100 μM trolox, 50 μM H2O2, 0.01 μM horseradish peroxide in phosphate buffer (pH = 7) and tested substances with a concentration from 0.05–0.35 μM were incubated at 25 °C. The measurement were conducted at 272 nm using an Agilent Carry 5000 spectrophotometer.

Bacillus sp. (Gram+) = test: Antimicrobial activity, MIC on Müeller Hinton Agar; format: cell-based, Bacillus subtilis; details: for MIC: read-out: MIC (minimal inhibitory concentration)
Experimental: as §1

[6] = test system: Stenotrophomonas maltophilia, Bacillus careus, Enterococcus faecalis, Bacillus subtilis, Streptococcus pneumoniae; set-up: method as in PMID 23509719, PMID 21483731, PMID 22417510; details: range over listed bacteria; cited from earlier work
[7] = test system: E. coli, Bacillus sp., Staphylococcus sp., Streptococcus pyogenes; test: Antibacterial activity, MIC as summarised in the abstract; format: cell-based; details: summary over tested bacteria (abstract)
Experimental: as §1

[8] = test system: multi-drug resistant Staphylococcus aureus; set-up: method as in PMID 26528244; details: via inhibition of the activity of sortase A; cited from earlier work
Hepatitis B virus = test system: Hepatitis B virus; set-up: method as in PMID 19463857; details: cited from earlier work

Structure (SMILES) | EC50 [1] [µM] | MIC (minimal inhibitory concentration) (Candida sp.; MHA plates, 30 °C, 48 h) | MIC (minimal inhibitory concentration) ([2]; MHA plates, 37 °C, 24 h) | MIC (minimal inhibitory concentration) ([3]; MHA plates, 37 °C, 24 h) | FRAP Values C Fe2+ ([4]; Ccompound 2.5 µM) [µM] | MIC (minimal inhibitory concentration) (E. coli (Gram−); MHA plates, 37 °C, 24 h) [mM] | MIC (minimal inhibitory concentration) (Bacillus sp. (Gram+); MHA plates, 37 °C, 24 h) | FRAP Values C Fe2+ ([4]; Ccompound 5 µM) [µM] | other results
O=C(/C=C/c1ccc(O)c(O)c1)O[C@@H]1C[C@](O)(C(=O)[O-])C[C@@H](O)[C@H]1O.[Rb+] [Rb 5-CQA, rubidium chlorogenate] | 5.4 ± 0.68 | 5.27 mM | 5.27 mM | 2.63 mM | 86.70 ± 2.86 | 2.63 | 5.27 mM |  | time after which the oxidation of trolox finished ([5]; compound 0.25 μM): 40 min
NC[C@H]1O[C@H](O[C@H]2[C@H](O)[C@@H](O[C@H]3O[C@H](CO)[C@@H](O)[C@H](N)[C@H]3O)[C@H](N)C[C@@H]2N)[C@H](O)[C@@H](O)[C@@H]1O [Kanamycin, reference compound] |  | 0.41 mM (≈ 199 µg/mL) | 0.21 mM (≈ 102 µg/mL) | 0.21 mM (≈ 102 µg/mL) |  | 0.21 (≈ 102 µg/mL) | 0.21 mM (≈ 102 µg/mL) |  | 
O=C(/C=C/c1ccc(O)c(O)c1)O[C@@H]1C[C@](O)(C(=O)[O-])C[C@@H](O)[C@H]1O.[Li+] [Li 5-CQA, lithium chlorogenate] | 5.28 ± 0.375 | ˃12.91 mM | ˃6.46 mM | ˃6.46 mM | 78.93 ± 4.23 | 6.46 | ˃6.46 mM |  | time after which the oxidation of trolox finished ([5]; compound 0.35 μM): 20 min
Cc1c(C)c2c(c(C)c1O)CCC(C)(C(=O)O)O2 (stereo not shown) [Trolox, reference compound] | 8.25 ± 0.75 |  |  |  |  |  |  | 70.85 ± 3.57 | 
O=C(/C=C/c1ccc(O)c(O)c1)O[C@@H]1C[C@](O)(C(=O)[O-])C[C@@H](O)[C@H]1O.[K+] [K 5-CQA, potassium chlorogenate] | 5.32 ± 0.49 | 5.96 mM | 2.98 mM | ˃5.96 mM | 99.89 ± 7.05 | 5.96 | 5.96 mM | 132.00 ± 6.07 | time after which the oxidation of trolox finished ([5]; compound 0.25 μM): 40 min; time after which the oxidation of trolox finished ([5]; compound 0.35 μM): 20 min
O=C(/C=C/c1ccc(O)c(O)c1)O[C@@H]1C[C@](O)(C(=O)[O-])C[C@@H](O)[C@H]1O.[Na+] [Na 5-CQA, sodium chlorogenate] | 4.5 ± 0.36 | ˃12.40 mM | ˃6.20 mM | ˃6.20 mM | 103.08 ± 2.79 | 6.20 | ˃6.20 mM | 141.13 ± 5.78 | time after which the oxidation of trolox finished ([5]; compound 0.35 μM): 20 min
CC1(C)S[C@@H]2[C@H](NC(=O)[C@H](N)c3ccccc3)C(=O)N2[C@H]1C(=O)O [Ampicillin, reference compound] |  |  |  |  |  |  |  |  | MIC (Candida sp.; 48 h, MHA plates, 30 °C, 48 h): 0.57 mM; MIC ([2]; MHA plates, 37 °C, 24 h): 0.57 mM; MIC ([3]; MHA plates, 37 °C, 24 h): 0.57 mM; MIC (E. coli (Gram−); MHA plates, 37 °C, 24 h): 0.43 mM; MIC (Bacillus sp. (Gram+); MHA plates, 37 °C, 24 h): 0.57 mM
O=C1O[C@H]([C@@H](O)CO)C(O)=C1O [L-ascorbic acid, reference compound] | 10.9 ± 0.53 |  |  |  |  |  |  | 81.70 ± 4.23 | 
O=C(/C=C/c1ccc(O)c(O)c1)O[C@@H]1C[C@](O)(C(=O)O)C[C@@H](O)[C@H]1O [5-CQA, 5-O-caffeoylquinic acid, reference compound] |  | > 14.11 mM |  |  |  |  |  |  | MIC [6]: 8 to 64 µg/mL; MIC [7]: 7.06 mM (≈ 2500 µg/mL); MIC (Candida sp.; 48 h, MHA plates, 30 °C, 48 h): 14.1 mM; MIC (Candida sp.; value in brackets): > 5000 µg/mL; MIC ([2]; MHA plates, 37 °C, 24 h): > 7.06 mM; MIC ([2]; value in brackets): > 2500 µg/mL; MIC ([3]; MHA plates, 37 °C, 24 h): > 7.06 mM; MIC ([3]; value in brackets): > 2500 µg/mL; MIC (E. coli (Gram−); MHA plates, 37 °C, 24 h): 7.06 mM; MIC (E. coli (Gram−); value in brackets): 2500 µg/mL; IC50 [8]: 33.86 ± 5.55 µg/mL (≈ 95.6 µM); IC50 against Hepatitis B virus (Hepatitis B virus): 0.4 µg/mL (≈ 1.13 µM); MIC (Bacillus sp. (Gram+); MHA plates, 37 °C, 24 h): > 7.06 mM; MIC (Bacillus sp. (Gram+); value in brackets): > 2500 µg/mL
O=C(/C=C/c1ccc(O)c(O)c1)O[C@@H]1C[C@](O)(C(=O)[O-])C[C@@H](O)[C@H]1O.[Cs+] [Cs 5-CQA, caesium chlorogenate] | 5.89 ± 1.57 | ˃9.58 mM | ˃4.79 mM | ˃4.79 mM | 80.47 ± 5.68 | 4.79 | ˃4.79 mM |  | 
Cc1cc(C(C)(C)C)c(O)c(C(C)(C)C)c1 [BHT, butylated hydroxytoluene, reference compound] | 52.8 ± 2.83 |  |  |  |  |  |  | 69.66 ± 5.54 | 
